Reference: patent US11491132B2, “Methods for treating thrombocytopenia” (Enzychem Lifesciences Corporation, priority 2014, dated 2022)

Assays:
[1] = test system: C3; test: C3 expression in HepG2 cell line, RT-PCR of mRNA; assay type: cell-based, human; settings: HepG2 cells, S6I 10 and 100 microgram/ml, relative to PLAG 1 and 10 microgram/ml
Description: A liver cell line, HepG2 (American Type Culture Collection, ATCC, Rockville, Md.), is incubated and maintained at 37° C., 5% CO2 humid atmosphere in DMEM medium. When HepG2 cells, which are known to produce complement in culture, are treated with PLAG, the activity of complement is reduced effectively, as confirmed by RT-PCR of mRNA. In the RT-PCR, 5×10^5 number of HepG2 cells/ml are distributed into 12 well plates and induced C3 for 12 hours with 10% FCS. Then PLAG is added and further cultured for 2 hours. Cells are harvested and mRNA is isolated and RT-PCR is carried out with specific primer of C3; GAPDH is used as an internal control.

[2] = test system: C3; test: C3 expression in IL-4/TNF-α treated HMC-1 cells, RT-PCR; assay type: cell-based, human; settings: HMC-1 cells treated with IL-4 and TNF-α; PLAG 0.1 and 1 μg/mL pre-treatment, or S6I
Description: A blood cell line, HMC-1 (human mast cell, American Type Culture Collection, ATCC, Rockville, Md.) is incubated and maintained at 37° C. under 5% CO2 humid conditions. The medium is IMDM (Life Technologies, Karlsruhe, Germany) containing 10% Fetal Calf Serum (FCS, HyClone, Logan, Utah), 2 mM […], 100 μg/ml penicillin, 100 μg/ml streptomycin (Life Technologies). The cultured HMC-1 cells (1×10^6 cell/ml) are pre-treated with 0.1 and 1 μg/mL concentration of PLAG, followed by treating with IL-4 (5 ng) and/or TNF-α (10 ng) to induce cellular activities.
The expressed C3 and its mRNA level change are observed by using RT-PCR (Reverse Transcriptase Polymerase Chain Reaction). The RT-PCR is carried out as follows: the total RNA is separated by the standard protocol and cDNA is synthesized using AccuScript High Fidelity 1st Strand cDNA Synthesis Kit (Stratagene) by the manufacturer's instructions. Two-step RT-PCR reaction is conducted using Oligo-dT primer and reverse transcriptase, pair of primer and Taq polymerase (Takara, Shiga, Japan). […] The product of PCR is separated using 1.5% agarose gel, dyed with ethidium bromide (EtBr), and visualized with Gel Doc 2000 UV trans-illuminator (Bio-Rad Laboratories, Hercules, Calif., USA), and the experimental data is analyzed using Quantity One software (Bio-Rad Laboratories).

[3] = test system: white blood cells and neutrophils; test: PLAG in combination with G-CSF in cyclophosphamide-treated mouse model; assay type: in vivo, mice; settings: cyclophosphamide 100 mpk i.p. ten days; G-CSF 0.25 mpk i.p.; PLAG 25 mpk p.o.
Excerpt: Mice receive cyclophosphamide (100 mpk, i.p.) for a period of ten days, with or without G-CSF (0.25 mpk, i.p.) or G-CSF (0.25 mpk, i.p.) plus PLAG (25 mpk, p.o.): […]

Compound | inhibition of C3 expression (RT-PCR) [1] | expression of C3 [2] | Neutrophils [3] [k/μl] | White blood cells (WBCs) [3] [k/μl]
NC(=O)c1cnc(NCCc2ccc(O)c(Cl)c2)nc1NCc1ccccc1 [S6I, reference compound] | comparable | suppresses expression of C3 |  | 
G-CSF: Granulocyte-colony stimulating factor, a glycoprotein that stimulates hematopoietic precursor cells in the bone marrow |  |  | 4.36 | 5.37
